{"source": "patent US11254706B2", "about": "“Peptide and its derivatives capable of inhibiting replication of hepatitis V virus in human adipose-derived stem cells and hepatocytes” (Inno Bio-Drug Development Limited, priority 2015, dated 2022)", "key": {"[1]": {"test_system": "serum-borne HCV (genotype 1b)", "test": "Replication of serum-borne HCV in hADSC (qRT-PCR of 5′-UTR)", "type": "cell-based", "conditions": "p5 hADSC, peptide 1, 10 and 100 μg/ml (control peptide 100 μg/ml) added 1 h before HCV(+) serum genotype 1b, day 21 post-infection; for viral (5′-UTR) copy numbers in the supernatant: FIG. 1A; for viral (5′-UTR) copy numbers in cell lysates: FIG. 1B", "description": "FIG. 1. […] Data are expressed as mean±SD from 3 experiments. […] Data are expressed as mean±SD from 3 experiments.\nWe next examined the effect of a peptide composed of 14 amino acids DEAQETAVSSHEQD (SEQ ID NO: 1) (designated as DEA), and its derivatives QETAVSSHEQD (SEQ ID NO: 3) (designated as QET) and DEAQETAVSSHEQ (SEQ ID NO: 2) (designated DEA-Q) as prepared in Example 1, in the replication of serum-borne HCV in hADSC and in human primary hepatocytes. […] (SEQ ID NO: 4)^10. […] In contrast, pretreatment with control peptide had no effects."}, "HCVser (genotype 1b)": {"test_system": "HCVser (genotype 1b)", "conditions": "for HCV copy numbers: at some concentrations (such as 10 and 100 μg/ml); for HCVser replication in human hepatocytes (cellular 5′-UTR RNA): pretreatment 1 h before HCVser-1b, five days post-infection, FIG. 1C", "protocol": "FIG. 1. […] (A and B) Concentrations of 1, 10 and 100 μg/ml of DEA, DEA-Q and QET peptides were added into the culture of p5 hADSC for 1 h before exposure to HCV(+) serum (genotype 1b). HLA-A11 restricted, Epstein-Barr virus-specific peptide epitope […] was used as a control (irrelevant) peptide. On day 21 post-infection, the 5′-UTR copy numbers in the supernatant (A) and cell lysates (B) were quantified by qRT-PCR. Data are expressed as mean±SD from 3 experiments. (C) Concentrations of 1, 10 and 100 μg/ml of DEA, DEA-Q and QET peptides were added into the culture of primary human hepatocytes 1 h before exposure to HCVser (genotype 1b). Five days post-infection, the cellular RNAs were extracted for RT-PCR of 5′-UTR. Data are expressed as mean±SD from 3 experiments.\nHuman hepatocytes were isolated from the non-tumoural part away from the lesion, as described^11. Hepatocytes were left for 3 days to allow attachment onto plastic wells, and subsequently exposed to the HCVser-1b with or without pretreatment with control peptide, DEA, DEA-Q or QET peptide. Five days post-infection, the cellular RNAs were extracted for RT-PCR of 5′-UTR."}}, "note": "Ends that are not written are not given here.", "data": [{"substance": "QETAVSSHEQD-OH [QET, QETAVSSHEQD]", "values": [{"measurement": "viral (5′-UTR) copy numbers in the supernatant", "setting": "[1]", "value": "significantly reduced"}, {"measurement": "viral (5′-UTR) copy numbers in cell lysates", "setting": "[1]", "value": "significantly reduced"}, {"measurement": "HCV copy numbers", "setting": "HCVser (genotype 1b)", "value": "under detection limit"}, {"measurement": "HCVser replication in human hepatocytes (cellular 5′-UTR RNA)", "setting": "HCVser (genotype 1b)", "value": "significantly inhibited"}]}, {"substance": "DEAQETAVSSHEQ-OH [DEA-Q, DEAQETAVSSHEQ]", "values": [{"measurement": "viral (5′-UTR) copy numbers in the supernatant", "setting": "[1]", "value": "significantly reduced"}, {"measurement": "viral (5′-UTR) copy numbers in cell lysates", "setting": "[1]", "value": "significantly reduced"}, {"measurement": "HCV copy numbers", "setting": "HCVser (genotype 1b)", "value": "under detection limit"}, {"measurement": "HCVser replication in human hepatocytes (cellular 5′-UTR RNA)", "setting": "HCVser (genotype 1b)", "value": "significantly inhibited"}]}, {"substance": "CSSCSSCPLSK (HLA-A11 restricted, Epstein-Barr virus-specific peptide epitope) [control peptide, reference compound]", "values": [{"measurement": "viral (5′-UTR) copy numbers in the supernatant", "setting": "[1]", "value": "no effects"}, {"measurement": "viral (5′-UTR) copy numbers in cell lysates", "setting": "[1]", "value": "no effects"}]}, {"substance": "DEAQETAVSSHEQD-OH [DEA, DEAQETAVSSHEQD]", "values": [{"measurement": "viral (5′-UTR) copy numbers in the supernatant", "setting": "[1]", "value": "significantly reduced"}, {"measurement": "viral (5′-UTR) copy numbers in cell lysates", "setting": "[1]", "value": "significantly reduced"}, {"measurement": "HCV copy numbers", "setting": "HCVser (genotype 1b)", "value": "under detection limit"}, {"measurement": "HCVser replication in human hepatocytes (cellular 5′-UTR RNA)", "setting": "HCVser (genotype 1b)", "value": "significantly inhibited"}]}]}
